# Values of other authors, collected in patent CN103919735A, “一种盐酸坦索罗辛缓释微丸及其制备方法” (Pharmaceutical (wuhan) Co Ltd, priority 2014, dated 2014).
# Tested on: BPH patients [BPH患者]
# Conditions: for relief of LUTS caused by BPH (in words): large number of studies
Compound,relief of LUTS caused by BPH (in words),"efficacy in long-term use (in words) (clinical study of 6 years in BPH, stated for α1 receptor blockers)","time to symptom improvement after treatment (clinical, BPH)"
CC(C)(C)NC(=O)[C@H]1CC[C@H]2[C@@H]3CC[C@H]4NC(=O)C=C[C@]4(C)[C@H]3CC[C@]12C [非那雄胺],均能有效缓解,–,–
CCOc1ccccc1OCCN[C@H](C)Cc1ccc(OC)c(S(N)(=O)=O)c1 [盐酸坦索罗辛],均能有效缓解,能够维持稳定的疗效,48 h
